# Results taken from patent US20150335677A1, “Argon is a mu opioid receptor antagonist” (priority 2014, published 2015).
# Columns and labels:
# [1] = normobaric and hyperbaric pressures of 1 to 4 atmospheres absolute; cited from earlier work
# mu opioid receptor = molecular target: T1, mu opioid receptor (Rattus norvegicus, UniProt P33535); experiment: [3H]-DAMGO binding in rat whole-brain membrane protein preparations; settings: 100 vol % argon compared to 100 vol % nitrogen
# T1 construct: Membrane preparations were obtained from whole brains of rats untreated (n=4); from tissue; host or cells: rat whole brain membranes
# Protocol: Membrane preparations were obtained from whole brains of rats untreated (n=4). The brains were crushed and homogenized in TRIS-HCl 50 mM buffer. After centrifugation, the bases of the vials were suspended in the same volume of TRIS-HCl buffer (×2). When the membrane preparation was obtained, the proteins were quantified to prepare in fine a solution at 1 mg/ml. Proteins were quantified using a BCA protein assay. Then, binding studies were performed as follows: solutions to allow calculating total binding were prepared by adding 385 μL of a TRIS-HCl buffer to 330 μL of proteins and 385 μL of [^3H]-DAMGO at decreasing concentrations (n=2 per dose, N=12). Solutions to allow calculating non-specific binding were prepared in the same fashion with naloxone instead of buffer. The vials containing these solutions were left open and placed in a closed chamber to allow saturating the solutions with 100 vol % nitrogen or argon. 1000 μL of each vial were placed in a 24-well plate coated with polyethylenimine. After drying, 100 μL scintillant was added to allow counting radioactivity (×3). Specific binding was obtained by subtracting non-specific binding to total binding, and Bmax, Kd, and Bmax×1/Kd (mu receptor activity) were calculated.
# [2] = test system: spontaneously hypertensive rats; experiment: Locomotor activity in spontaneously hypertensive rats (ADHD model); format: in vivo, rat; settings: argon 75 vol % 3 h daily day 1 to day 3 vs medical air; recorded on day 7; P<0.02
# Protocol: Male spontaneously hypertensive rats (n=7-8 per group), known to show spontaneous locomotor hyperactivity and used as a model for the attention deficit and hyperactivity disorder (ADHD), were treated daily from day 1 to day 3 for 3 h with ‘medical’ air (composed of 75 vol % nitrogen and 25 vol % oxygen) or argon at 75 vol % (with the remainder being oxygen) at a flow rate of 5 L/min in a closed chamber. On day 7, rats were habituated to the activity boxes for 1 h before being recorded for locomotor activity for 1 h 30 min as detailed previously (David et al., Neuropharmacol., 2004).
# [3] = test system: type A γ-aminobutyric acid (GABA) and benzodiazepine receptors; settings: pressure of around 15 atmospheres absolute; cited from earlier work
# Sprague-Dawley rats [4] = experiment: Stress level: righting reflex when handled abdomen side up; format: in vivo, rat; settings: argon 75 vol % 3 h day 1 to day 3 vs air; recorded after treatment on days 1 to 3 and on day 7; P<0.05
# Protocol: (§1) In a first series of experiments, male adult Sprague-Dawley rats (n=6 per group) were treated for 3 h from day 1 to day 3 with ‘medical’ air (composed of 75 vol % nitrogen and 25 vol % oxygen) or argon at 75 vol % (with the remainder being oxygen) at a flow rate of 5 L/min in a closed chamber. None of the animals were habituated to handling with their abdomen side up. Immediately after being treated with either air or argon from day 1 to day 3, and on day 7, rats were handled by an experimenter blind of the rats' gas treatment, with their back placed in the palm of the experimenter and their abdomen side up. The rat's stress level was rated both by the experimenter and an additional observer, also blind of the rats' gas treatment, by counting the number of righting reflex of the animals during a 1-min period on a scale of 0 to 3 with 0 being a total absence of righting reflex and 3 being repetitive righting reflexes. Then, the rats' social interaction was also evaluated. The animals were placed by group of 2 in an open field measuring 90 cm×90 cm for a 10-min period, and the time spent by the animals at a distance comprised between 2 and 5 cm was recorded and taken as a behavioral marker of social interaction.
# [5] = molecular target: T2, type 2 vesicular monoamine transporter (Rattus norvegicus, UniProt Q01827); experiment: Carrier-mediated and KCl-evoked dopamine release in nucleus accumbens brain slices with amphetamine; format: cell-based
# T2 construct: Coronal brain slices (400 μm thickness) including the nucleus accumbens; from tissue; host or cells: rat nucleus accumbens brain slices
# Protocol: Rats were killed by decapitation and the brains were carefully removed and placed in ice-cold artificial cerebrospinal fluid (aCSF). Coronal brain slices (400 μm thickness) including the nucleus accumbens (anteriority: −1.2 to +2 mm from the bregma) were cut using a tissue chopper. Before being used, brain slices (n=4 per condition) were allowed to recover at room temperature for 1 hour in oxygenated a CSF. […] Control slices were treated with saline solution and air. Carrier-mediated and depolarization-dependent (KCl: 100 mM) dopamine release in the nucleus accumbens were monitored using a polarograph and standard glass-encased nafion-precoated carbon fiber electrodes (David H. N. et al., Biol. Psych., 2006). […] Therefore, in the experiments with argon, argon was only administered after Peak 1 (P1) KCl-evoked dopamine release had returned to baseline (B2).
# Sprague-Dawley rats [6] = experiment: Social interaction in open field; format: in vivo, rat; settings: argon 75 vol % 3 h day 1 to day 3 vs air; recorded after treatment on days 1 to 3 and on day 7; P<0.05
# Protocol: as §1
# Sprague-Dawley rats [7] = experiment: Time in central area of open field after electric shock conditioning; format: in vivo, rat; settings: argon 75 vol % 3 h day 4 to day 6 vs air; recorded on days 4 to 6 and on day 8; P<0.05
# Protocol: In a second series of experiments, from day 1 to day 3, additional male Sprague-Dawley rats (n=6 per group) were placed for 10 min in an open field measuring 90 cm×90 cm, which central area measuring 50 cm×50 cm was equipped for delivering an electric shock to the animals that stayed more than 5 s in the area. From day 4 to day 6, the animals were treated for 3 h with medical air or argon at 75 vol % at a flow rate of 5 L/min in a closed chamber. Immediately after being treated with either air or argon from day 4 to day 6, and on day 8, rats were placed in the open field, and recorded during a 10-min period for the time that they spent in the central area whose electrical circuit was switched off.
# T1 sequence (P33535 whole entry): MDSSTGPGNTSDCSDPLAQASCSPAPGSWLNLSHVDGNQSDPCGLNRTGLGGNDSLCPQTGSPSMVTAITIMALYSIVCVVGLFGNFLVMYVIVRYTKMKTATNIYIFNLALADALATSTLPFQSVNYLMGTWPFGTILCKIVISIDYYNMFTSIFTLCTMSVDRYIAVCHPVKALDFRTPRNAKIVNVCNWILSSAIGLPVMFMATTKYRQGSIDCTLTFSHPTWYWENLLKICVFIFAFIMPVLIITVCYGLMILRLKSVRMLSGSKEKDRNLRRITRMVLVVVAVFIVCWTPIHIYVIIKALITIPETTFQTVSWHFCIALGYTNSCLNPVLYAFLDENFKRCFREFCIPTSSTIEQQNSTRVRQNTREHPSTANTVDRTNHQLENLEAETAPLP
# T2 sequence (Q01827 whole entry): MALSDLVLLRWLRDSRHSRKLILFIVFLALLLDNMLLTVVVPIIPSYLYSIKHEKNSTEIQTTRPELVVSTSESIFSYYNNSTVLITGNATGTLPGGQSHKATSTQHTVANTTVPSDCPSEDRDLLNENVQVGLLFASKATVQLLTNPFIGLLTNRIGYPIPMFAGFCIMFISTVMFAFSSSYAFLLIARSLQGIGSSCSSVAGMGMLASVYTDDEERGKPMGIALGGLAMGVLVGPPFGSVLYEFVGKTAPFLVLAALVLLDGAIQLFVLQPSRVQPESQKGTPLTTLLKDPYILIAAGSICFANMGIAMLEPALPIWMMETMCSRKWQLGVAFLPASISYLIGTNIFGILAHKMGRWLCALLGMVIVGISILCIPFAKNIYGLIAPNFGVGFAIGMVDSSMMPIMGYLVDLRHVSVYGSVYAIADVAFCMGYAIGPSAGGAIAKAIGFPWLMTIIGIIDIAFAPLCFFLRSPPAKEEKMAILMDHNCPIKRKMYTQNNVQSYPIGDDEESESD
structure (smiles),measurement,setting,value
[Ar] [argon],side effects of breathing argon,[1],no or minimal side effect
same,1/Kd (affinity) of DAMGO binding,mu opioid receptor,trend toward reduction
same,decrease in mu receptor activity (Bmax×1/Kd),mu opioid receptor; P<0.05,60%
same,decrease of Bmax (number of receptors) of DAMGO binding,mu opioid receptor; membrane protein preparations,15%
same,locomotor activity,[2],lower locomotor activity
same,action at type A GABA and benzodiazepine receptors,[3],acts as an agonist
same,number of righting reflex when handled abdomen side up,Sprague-Dawley rats [4],reduced number of righting reflex
same,effect on Peak 2 KCl-evoked dopamine release,"[5]; amphetamine in the presence of air or argon, KCl 100 mM",lack of effect
same,effect on amphetamine-induced reduction in Peak 3 (P3) KCl-evoked dopamine release,"[5]; argon 75 vol % vs air, with amphetamine, KCl 100 mM, P<0.02",further potentiates the reduction
same,effect on amphetamine-induced increase in carrier-mediated dopamine release,"[5]; argon 75 vol % vs air, with amphetamine, rat nucleus accumbens slices, P<0.02",decreases the facilitating action of amphetamine
same,social interactions,Sprague-Dawley rats [6],increased number of social interactions
same,time spent in central area of the open field,Sprague-Dawley rats [7],penetrated the central area of the open field to a greater extent
